{"source": "patent US20150368617A1", "about": "“METHOD FOR FORMING ENDOTHELIAL CELLS” (Korea Advanced Institute of Science and Technology (KAIST), priority 2012, published 2015)", "format_in_all_cases": "cell-based, mouse", "key": {"VYI-ECs [1]": {"tested_on": "VYI-ECs", "experiment": "Angiogenesis assay using a microfluidic device", "details": "72 hr; co-treatment of Y27632 with VEGF-A", "procedure": "To test the angiogenic property of VYI-ECs, we utilized a microfluidic platform that was modified from the previously described device. Briefly, a poly-dimethylsiloxane (PDMS) based microfluidic platform containing three channels was fabricated with poly-dimethylsiloxane using a soft lithography process. Two empty spaces in between three parallel channels were filled with a mixture of type I collagen (3 mg/ml, rat tail, BD Biosciences) and fibronectin (50 μg/ml, Invitrogen), which together acted as an ECM scaffold. The center channel was coated with fibronectin (10 μg/ml), and was seeded with 40˜50 μl of VYI-EC suspension (1×10^7 cells/ml). The device was tilted vertically for 1 hr to allow the cells to attach onto the sidewall of the scaffold by gravity. The cells were then seeded onto the other sidewall by flipping the device upside down. Cell culture media in the side channels containing VEGF-A (50 ng/ml) or VEGF-A (50 ng/ml) plus Y27632 (10 μM) were exchanged with fresh media every 12 hr. Phase contrast and immunofluorescent images were acquired to analyze the angiogenic sprouting formation of VYI-ECs."}, "ICAM2+ ECs": {"tested_on": "ICAM2+ ECs", "experiment": "Cell adhesion assay, ICAM2+ ECs", "details": "6 hrs after plating; in the presence of VEGF-A", "procedure": "(§1) Sorted Flk1+ MPCs or ICAM2+ ECs were plated onto Matrigel coated plates at a density of 10,000 cells/cm^2. Six hrs after plating, non-adherent cells were removed by washing and the cell number of adherent cells was counted following trypsinization. The percentage of adherent cells was calculated as (counted cell number/initial seeded cell number)×100."}, "Flk1+ MPCs [2]": {"tested_on": "Flk1+ MPCs", "experiment": "Western blotting of signaling proteins in Flk1+ MPCs", "procedure": "FIGS. 10A-10B. PI3-kinase/Akt signaling and MyPT-MLC signaling are involved in ROCK suppression-induced expansion of ECs. Flk1+ MPCs were incubated with indicated agents for 2 days, and analyses were performed on day 6.5. (FIG. 10A) Immunoblotting for pPTEN, PTEN, pAkt, Akt, pERK, ERK, pMyPT, MyPT, pMLC, MLC, ┌ SMA and GAPDH in Flk1+ MPCs treated with PBS (Control), Y27632 (10┌ M), VEGF-A (50 ng/ml; VA), or VA plus Y27632. The Flk1+ MPCs were cultured for 12 hrs, starved for 6 hrs with or without Y27632, and then treated with VEGF-A (50 ng/ml) for 10 min. Results from four independent trials were similar to each other. (FIG. 10B) Quantitative analyses of phosphorylations of AKT, PTEN, MyPT and MLC. Signal intensities were quantitatively evaluated using Image J software. Intensity of phosphorylated/total form of each protein in Control is regarded as 1 and relative intensities are expressed as fold. The mean of relative values from four independent experiments are represented. *p<0.01 versus Control. ^#p<0.01 versus VEGF-A. N.D represents non-detected.\nCell lysates were separated by SDS-PAGE gel and transferred to PVDF membranes for Western Blot analysis. After blocking with 5% skim milk, the membranes were first incubated with primary antibodies in blocking buffer overnight at 4┌ C, then with HRP-conjugated secondary antibodies for 1 hr at RT. The following primary antibodies were used: anti-RhoA (mouse monoclonal, Cytoskeleton Inc.), anti-ROCK1 (mouse monoclonal, Santa Cruz), anti-ROCK2 (rabbit polyclonal, Santa Cruz), anti-┌-tubulin (mouse monoclonal, Santa Cruz), anti-phospho-PTEN (Ser380/Thr382/383)(clone 44A7, Cell Signaling), anti-PTEN (clone 138G6, Cell Signaling), anti-phospho-Akt (Ser473)(clone 193H12, Cell Signaling), anti-Akt (rabbit polyclonal, Cell Signaling), anti-phospho-ERK (Thr202/Tyr204) (clone 20G11, Cell Signaling), anti-ERK (rabbit monoclonal, Cell Signaling), anti-phospho-MyPT (Thr696) (rabbit polyclonal, Cell Signaling), anti-MyPT (rabbit polyclonal, Cell Signaling), anti-phospho-MLC (Thr18/Ser19) (rabbit polyclonal, Cell Signaling), anti-MLC (rabbit polyclonal, Cell Signaling), anti-┌ SMA (rabbit polyclonal, Novus Biologicals), anti-GAPDH (rabbit polyclonal, Santa Cruz), anti-phospho-VEGFR2 (Tyr1175) (clone 19A10, Cell Signaling), and anti-VEGFR2 (clone 55B11, Cell Signaling). The secondary antibodies used were rabbit anti-mouse IgG-HRP (Santa Cruz) and goat anti-rabbit IgG-HRP (Santa Cruz). Signals were developed with enhanced chemiluminescence HRP substrate (Millipore) and detected using LAS-3000 mini (Fuji film)."}, "VYI-ECs [3]": {"tested_on": "VYI-ECs", "experiment": "Matrigel tube forming assay", "details": "addition of Y27632 10 μM to VEGF-A", "procedure": "The purified VYI-ECs (described in detail in the Results section) were plated on Matrigel-filled plates at a density of 2-4×10^4 cells/cm^2, and were incubated in differentiation medium containing VEGF-A (50 ng/ml) with or without Y27632 (10┌ M). After 12 hrs, the tube structures were observed using Axiovert 25 microscope (Carl Zeiss) and phase-contrast images were taken using DeltaPix infinity X digital camera and DpxView LE software (DeltaPix, Denmark)."}, "VYI-ECs [4]": {"tested_on": "VYI-ECs", "experiment": "Scratch wound healing assay", "details": "addition of Y27632 10 μM to VEGF-A", "procedure": "The purified VYI-ECs were plated on Matrigel-coated plates and incubated in differentiation medium until confluent. A single scratch wound was made on the cell-plated surface with a 200┌ l disposable pipette tip, and the medium was exchanged with a new medium containing either VEGF-A (50 ng/ml), Y27632 (10┌ M), or both. The wound was allowed to heal for 12 hrs. Phase contrast images were taken at 0, 3, 6, and 12 hrs. The average extent of wound closure was evaluated by measuring the wound area using ImageJ software."}, "Flk1+ MPCs [5]": {"tested_on": "Flk1+ MPCs", "experiment": "Cell adhesion assay, Flk1+ MPCs", "details": "6 hrs", "procedure": "as §1"}, "Flk1+ MPCs [6]": {"tested_on": "Flk1+ MPCs", "experiment": "EC colony assay", "details": "36 hrs; VEGF-A 50 ng/ml, Y27632 10 μM", "procedure": "The Flk1+ MPCs were plated onto Matrigel-coated plate at a density of 4,000 cells/cm^2, and cultured in differentiation medium supplemented with VEGF-A165 (50 ng/ml) and Y27632 (10┌M). At 36 hrs later, the number of CD144+ EC colonies was counted. Clustering of >5 CD144+ ECs was regarded as one EC colony."}, "[7]": {"details": "Y27632 10 μM, VEGF-A 50 ng/ml for 10 min"}, "[8]": {"details": "regardless of VEGF-A stimulation"}}, "note": "Entries after “also recorded” stand apart in the source; their conditions may differ."}
{"smiles": "C[C@@H](N)[C@H]1CC[C@H](C(=O)Nc2ccncc2)CC1", "note": "[Y27632]", "values": [{"measurement": "increase of length of sprouting CD144+ VYI-ECs", "setting": "VYI-ECs [1]", "result": 1.7, "unit": "fold"}, {"measurement": "adhesion of ICAM2+ ECs onto the plate", "setting": "ICAM2+ ECs", "result": 1.3, "unit": "fold"}, {"measurement": "phosphorylation of Akt (Ser473)", "setting": "Flk1+ MPCs [2]; [7]", "result": "phosphorylated"}, {"measurement": "phosphorylation of ERK", "setting": "Flk1+ MPCs [2]; [7]", "result": "but not ERK"}, {"measurement": "phosphorylation of PTEN (Ser380, Thr382 and Thr383)", "setting": "Flk1+ MPCs [2]; [7]", "result": "phosphorylated"}, {"measurement": "phosphorylation of MLC", "setting": "Flk1+ MPCs [2]; [8]", "result": "almost completely reduced; also recorded: inhibits"}, {"measurement": "phosphorylation of MyPT", "setting": "Flk1+ MPCs [2]; [8]", "result": "almost completely reduced"}, {"measurement": "protein levels of αSMA", "setting": "Flk1+ MPCs [2]; [8]", "result": "reduced"}, {"measurement": "increase of formation of vascular networks", "setting": "VYI-ECs [3]", "result": 1.7, "unit": "fold"}, {"measurement": "increase of cell invasion into the wound region", "setting": "VYI-ECs [4]", "result": 2.1, "unit": "fold"}, {"measurement": "adhesion of Flk1+ cells onto the plates compared to control", "setting": "Flk1+ MPCs [5]", "result": 1.3, "unit": "fold"}, {"measurement": "number of EC colonies and cell number in each colony", "setting": "Flk1+ MPCs [6]", "result": "increased"}]}
